The text below walks through data of ChEMBL document CHEMBL1131296 (J Med Chem, 1998).

The target of this assay is T1, Alpha-1D adrenergic receptor (Rattus norvegicus, UniProt P23944).
T1 sequence (P23944 whole entry): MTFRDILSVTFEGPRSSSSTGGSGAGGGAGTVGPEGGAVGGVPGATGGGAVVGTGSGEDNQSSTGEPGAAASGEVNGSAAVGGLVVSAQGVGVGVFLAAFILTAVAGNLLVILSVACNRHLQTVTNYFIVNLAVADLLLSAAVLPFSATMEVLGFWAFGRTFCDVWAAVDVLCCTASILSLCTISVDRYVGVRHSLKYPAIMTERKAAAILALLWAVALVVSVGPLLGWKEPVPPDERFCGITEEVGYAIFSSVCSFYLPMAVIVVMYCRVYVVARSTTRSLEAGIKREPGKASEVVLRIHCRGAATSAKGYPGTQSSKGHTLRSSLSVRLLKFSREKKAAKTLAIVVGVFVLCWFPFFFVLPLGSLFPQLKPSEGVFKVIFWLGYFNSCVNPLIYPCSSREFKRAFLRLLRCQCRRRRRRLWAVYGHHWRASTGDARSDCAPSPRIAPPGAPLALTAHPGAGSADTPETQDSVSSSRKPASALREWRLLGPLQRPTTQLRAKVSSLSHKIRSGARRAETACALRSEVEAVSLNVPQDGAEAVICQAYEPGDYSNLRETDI
Nature of the assay: Antagonism of norepinephrine induced contraction of rat isolated thoracic aorta. Format: functional, tissue-based. The note with it: read-out: pA2 (converted).

Take `COc1cc2nc(N(C)CCCCCCN(C)C(=O)c3cccc(CN(C)C)c3)nc(N)c2cc1OC`: the Kb is 5.5 nM.
